# Results taken from PubChem BioAssay (NCI).
#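 Assay format: 96-well plates, 48-hour exposure. At the TGI there is no net growth.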
# Tests used:
# Test in all cases: NCI anticancer screen, dose series, 48 h
# 786-0 renal = system: 786-0 renal
# A498 renal = system: A498 renal
# A549 NSCLC = system: A549 NSCLC
# ACHN renal = system: ACHN renal
# BT-549 breast = system: BT-549 breast
# CAKI-1 renal = system: CAKI-1 renal
# CCRF-CEM leukemia = system: CCRF-CEM leukemia
# COLO 205 colon = system: COLO 205 colon
# DU-145 prostate = system: DU-145 prostate
# EKVX NSCLC = system: EKVX NSCLC
# HCC-2998 colon = system: HCC-2998 colon
# HCT-116 colon = system: HCT-116 colon
# HCT-15 colon = system: HCT-15 colon
# HL-60(TB) leukemia = system: HL-60(TB) leukemia
# HOP-62 NSCLC = system: HOP-62 NSCLC
# HOP-92 NSCLC = system: HOP-92 NSCLC
# HS 578T breast = system: HS 578T breast
# HT29 colon = system: HT29 colon
# IGROV1 ovarian = system: IGROV1 ovarian
# K-562 leukemia = system: K-562 leukemia
# KM12 colon = system: KM12 colon
# LOX IMVI melanoma = system: LOX IMVI melanoma
# M14 melanoma = system: M14 melanoma
# MALME-3M melanoma = system: MALME-3M melanoma
# MCF7 breast = system: MCF7 breast
# MDA-MB-231 breast = system: MDA-MB-231 breast
# MDA-MB-435 = system: MDA-MB-435
# MDA-N = system: MDA-N
# MOLT-4 leukemia = system: MOLT-4 leukemia
# NCI-H226 lung = system: NCI-H226 lung
# NCI-H23 lung = system: NCI-H23 lung
# NCI-H460 lung = system: NCI-H460 lung
# NCI-H522 lung = system: NCI-H522 lung
# NCI/ADR-RES ovarian = system: NCI/ADR-RES ovarian
# OVCAR-3 ovarian = system: OVCAR-3 ovarian
# OVCAR-4 ovarian = system: OVCAR-4 ovarian
# OVCAR-5 ovarian = system: OVCAR-5 ovarian
# OVCAR-8 ovarian = system: OVCAR-8 ovarian
# PC-3 prostate = system: PC-3 prostate
# RPMI-8226 leukemia = system: RPMI-8226 leukemia
# RXF 393 renal = system: RXF 393 renal
# SF-268 CNS = system: SF-268 CNS
# SF-295 CNS = system: SF-295 CNS
# SF-539 CNS = system: SF-539 CNS
# SK-MEL-2 melanoma = system: SK-MEL-2 melanoma
# SK-MEL-28 melanoma = system: SK-MEL-28 melanoma
# SK-MEL-5 melanoma = system: SK-MEL-5 melanoma
# SK-OV-3 ovarian = system: SK-OV-3 ovarian
# SN12C renal = system: SN12C renal
# SNB-19 CNS = system: SNB-19 CNS
# SNB-75 CNS = system: SNB-75 CNS
# SR leukemia = system: SR leukemia
# SW-620 colon = system: SW-620 colon
# T-47D breast = system: T-47D breast
# TK-10 renal = system: TK-10 renal
# U251 CNS = system: U251 CNS
# UACC-257 melanoma = system: UACC-257 melanoma
# UACC-62 melanoma = system: UACC-62 melanoma
# UO-31 renal = system: UO-31 renal
compound,measurement,setting,value
COC(O)C12OC3CO[Si](C(C)C)(C(C)C)O[Si](C(C)C)(C(C)C)OC3C1Oc1nc(=O)ccn12 (stereo not drawn),TGI,786-0 renal,31.1 µM
same,TGI,A498 renal,32.9 µM
same,TGI,A549 NSCLC,26.1 µM
same,TGI,ACHN renal,27.5 µM
same,TGI,BT-549 breast,29.3 µM
same,TGI,CAKI-1 renal,33.7 µM
same,TGI,CCRF-CEM leukemia,18.5 µM
same,TGI,COLO 205 colon,27.3 µM
same,TGI,DU-145 prostate,30.6 µM
same,TGI,EKVX NSCLC,28.7 µM
same,TGI,HCC-2998 colon,14.9 µM
same,TGI,HCT-116 colon,21.8 µM
same,TGI,HCT-15 colon,30.9 µM
same,TGI,HL-60(TB) leukemia,13.2 µM
same,TGI,HOP-62 NSCLC,26.9 µM
same,TGI,HOP-92 NSCLC,22 µM
same,TGI,HS 578T breast,19.5 µM
same,TGI,HT29 colon,20.5 µM
same,TGI,IGROV1 ovarian,25.6 µM
same,TGI,K-562 leukemia,64.9 µM
same,TGI,KM12 colon,19 µM
same,TGI,LOX IMVI melanoma,27.9 µM
same,TGI,M14 melanoma,25.3 µM
same,TGI,MALME-3M melanoma,26.9 µM
same,TGI,MCF7 breast,24.8 µM
same,TGI,MDA-MB-231 breast,34 µM
same,TGI,MDA-MB-435,26.7 µM
same,TGI,MDA-N,26.7 µM
same,TGI,MOLT-4 leukemia,5.78 µM
same,TGI,NCI-H226 lung,33.9 µM
same,TGI,NCI-H23 lung,28.4 µM
same,TGI,NCI-H460 lung,23.4 µM
same,TGI,NCI-H522 lung,18.3 µM
same,TGI,NCI/ADR-RES ovarian,50.6 µM
same,TGI,OVCAR-3 ovarian,23.5 µM
same,TGI,OVCAR-4 ovarian,28 µM
same,TGI,OVCAR-5 ovarian,29.1 µM
same,TGI,OVCAR-8 ovarian,24.6 µM
same,TGI,PC-3 prostate,17 µM
same,TGI,RPMI-8226 leukemia,3.51 µM
same,TGI,RXF 393 renal,24.6 µM
same,TGI,SF-268 CNS,26.4 µM
same,TGI,SF-295 CNS,24.8 µM
same,TGI,SF-539 CNS,29.3 µM
same,TGI,SK-MEL-2 melanoma,25.1 µM
same,TGI,SK-MEL-28 melanoma,> 100 µM
same,TGI,SK-MEL-5 melanoma,21.1 µM
same,TGI,SK-OV-3 ovarian,31.6 µM
same,TGI,SN12C renal,27.8 µM
same,TGI,SNB-19 CNS,28.9 µM
same,TGI,SNB-75 CNS,41.3 µM
same,TGI,SR leukemia,6.98 µM
same,TGI,SW-620 colon,> 52.7 µM
same,TGI,T-47D breast,24.1 µM
same,TGI,TK-10 renal,28.7 µM
same,TGI,U251 CNS,> 48.3 µM
same,TGI,UACC-257 melanoma,24.3 µM
same,TGI,UACC-62 melanoma,23.4 µM
same,TGI,UO-31 renal,29.3 µM
NC(N)=NS(=O)(=O)c1ccc(NC(=O)c2cccc3c(NNc4ccc(C(=O)O)cc4)c4ccccc4nc23)cc1,TGI,786-0 renal,> 100 µM
same,TGI,A498 renal,98.2 µM
same,TGI,A549 NSCLC,> 100 µM
same,TGI,ACHN renal,> 100 µM
same,TGI,BT-549 breast,> 100 µM
same,TGI,CAKI-1 renal,> 100 µM
same,TGI,CCRF-CEM leukemia,85.2 µM
same,TGI,COLO 205 colon,> 100 µM
same,TGI,DU-145 prostate,> 100 µM
same,TGI,EKVX NSCLC,> 100 µM
same,TGI,HCC-2998 colon,> 100 µM
same,TGI,HCT-116 colon,> 100 µM
same,TGI,HCT-15 colon,> 100 µM
same,TGI,HL-60(TB) leukemia,> 100 µM
same,TGI,HOP-62 NSCLC,> 100 µM
same,TGI,HOP-92 NSCLC,> 100 µM
same,TGI,HS 578T breast,> 100 µM
same,TGI,HT29 colon,> 100 µM
same,TGI,IGROV1 ovarian,> 100 µM
same,TGI,K-562 leukemia,> 100 µM
same,TGI,KM12 colon,> 100 µM
same,TGI,LOX IMVI melanoma,> 100 µM
same,TGI,M14 melanoma,> 100 µM
same,TGI,MALME-3M melanoma,> 100 µM
same,TGI,MCF7 breast,> 100 µM
same,TGI,MDA-MB-231 breast,> 100 µM
same,TGI,MDA-MB-435,> 100 µM
same,TGI,MDA-N,> 100 µM
same,TGI,MOLT-4 leukemia,> 100 µM
same,TGI,NCI-H226 lung,> 100 µM
same,TGI,NCI-H23 lung,> 100 µM
same,TGI,NCI-H460 lung,> 100 µM
same,TGI,NCI-H522 lung,> 100 µM
same,TGI,NCI/ADR-RES ovarian,> 100 µM
same,TGI,OVCAR-3 ovarian,> 100 µM
same,TGI,OVCAR-4 ovarian,> 100 µM
same,TGI,OVCAR-5 ovarian,> 100 µM
same,TGI,OVCAR-8 ovarian,> 100 µM
same,TGI,PC-3 prostate,> 100 µM
same,TGI,RPMI-8226 leukemia,> 100 µM
same,TGI,RXF 393 renal,> 100 µM
same,TGI,SF-268 CNS,> 100 µM
same,TGI,SF-295 CNS,> 100 µM
same,TGI,SF-539 CNS,> 100 µM
same,TGI,SK-MEL-2 melanoma,95.7 µM
same,TGI,SK-MEL-28 melanoma,> 100 µM
same,TGI,SK-MEL-5 melanoma,> 100 µM
same,TGI,SK-OV-3 ovarian,> 100 µM
same,TGI,SN12C renal,> 100 µM
same,TGI,SNB-19 CNS,> 100 µM
same,TGI,SNB-75 CNS,> 100 µM
same,TGI,SR leukemia,> 100 µM
same,TGI,SW-620 colon,> 100 µM
same,TGI,T-47D breast,> 100 µM
same,TGI,TK-10 renal,> 100 µM
same,TGI,U251 CNS,> 100 µM
same,TGI,UACC-257 melanoma,> 100 µM
same,TGI,UACC-62 melanoma,> 100 µM
same,TGI,UO-31 renal,> 100 µM
